Source: patent publication EP4678638A1, “NEW E3 UBIQUITIN LIGASE LIGAND, PROTEIN DEGRADATION AGENT AND USE THEREOF” (priority 2023, dated 2024)
Read-outs that look alike come from different tables or passages of the source.

What was measured:
MCF7 = test: CCK-8 proliferation, MCF7 (MCF-7); type: cell-based; conditions: Homo sapiens, MCF7; CCK-8; read-out: Inhibitory activity (IC50) on tumor cell proliferation, MCF-7
Outline: (§1)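 Cells seeded, then after 24 h treated with 10 concentrations (top 10 µM, 5-fold serial dilution) for a line-specific time at 37°C, 5% CO2. Viability read by CCK-8; IC50 fitted from growth-inhibition curves.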

IKZF1 = biological target: T1, IKZF1 (Homo sapiens, UniProt Q13422+Q96SW2); test: Western blot degradation of IKZF1 (hPBMC); type: cell-based; conditions: Table D16
T1 construct: evaluate the effects of the compounds of the present disclosure on the expression of target proteins in cells; endogenous in cells; host or cells: hPBMC
T1 sequence (Q13422 whole entry): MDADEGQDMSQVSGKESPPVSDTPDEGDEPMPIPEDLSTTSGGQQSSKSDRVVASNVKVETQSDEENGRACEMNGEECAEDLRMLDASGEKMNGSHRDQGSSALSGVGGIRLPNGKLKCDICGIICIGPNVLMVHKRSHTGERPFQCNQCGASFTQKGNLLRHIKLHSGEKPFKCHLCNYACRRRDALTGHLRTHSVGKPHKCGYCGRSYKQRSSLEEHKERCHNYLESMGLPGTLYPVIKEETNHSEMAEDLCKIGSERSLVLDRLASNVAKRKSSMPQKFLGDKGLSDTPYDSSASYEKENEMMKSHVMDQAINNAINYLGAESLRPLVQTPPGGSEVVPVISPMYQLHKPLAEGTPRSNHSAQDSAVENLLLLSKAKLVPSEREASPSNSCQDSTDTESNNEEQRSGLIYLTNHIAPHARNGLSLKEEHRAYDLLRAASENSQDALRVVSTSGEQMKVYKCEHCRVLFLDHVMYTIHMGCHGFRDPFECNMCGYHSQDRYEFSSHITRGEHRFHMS
T1 sequence (Q96SW2 whole entry): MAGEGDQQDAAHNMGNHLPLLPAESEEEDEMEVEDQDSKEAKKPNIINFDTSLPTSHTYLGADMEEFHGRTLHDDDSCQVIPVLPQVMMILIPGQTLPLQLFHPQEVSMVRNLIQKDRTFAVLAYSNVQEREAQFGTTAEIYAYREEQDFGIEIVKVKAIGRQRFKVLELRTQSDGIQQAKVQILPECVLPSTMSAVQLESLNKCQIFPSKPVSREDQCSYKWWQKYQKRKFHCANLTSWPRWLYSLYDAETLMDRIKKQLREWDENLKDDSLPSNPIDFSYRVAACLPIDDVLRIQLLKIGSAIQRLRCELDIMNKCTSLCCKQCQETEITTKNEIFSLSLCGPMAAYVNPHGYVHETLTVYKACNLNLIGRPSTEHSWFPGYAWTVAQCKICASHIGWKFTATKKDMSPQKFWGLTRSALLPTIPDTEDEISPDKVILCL
T1 sequence (Q16531 whole entry partner): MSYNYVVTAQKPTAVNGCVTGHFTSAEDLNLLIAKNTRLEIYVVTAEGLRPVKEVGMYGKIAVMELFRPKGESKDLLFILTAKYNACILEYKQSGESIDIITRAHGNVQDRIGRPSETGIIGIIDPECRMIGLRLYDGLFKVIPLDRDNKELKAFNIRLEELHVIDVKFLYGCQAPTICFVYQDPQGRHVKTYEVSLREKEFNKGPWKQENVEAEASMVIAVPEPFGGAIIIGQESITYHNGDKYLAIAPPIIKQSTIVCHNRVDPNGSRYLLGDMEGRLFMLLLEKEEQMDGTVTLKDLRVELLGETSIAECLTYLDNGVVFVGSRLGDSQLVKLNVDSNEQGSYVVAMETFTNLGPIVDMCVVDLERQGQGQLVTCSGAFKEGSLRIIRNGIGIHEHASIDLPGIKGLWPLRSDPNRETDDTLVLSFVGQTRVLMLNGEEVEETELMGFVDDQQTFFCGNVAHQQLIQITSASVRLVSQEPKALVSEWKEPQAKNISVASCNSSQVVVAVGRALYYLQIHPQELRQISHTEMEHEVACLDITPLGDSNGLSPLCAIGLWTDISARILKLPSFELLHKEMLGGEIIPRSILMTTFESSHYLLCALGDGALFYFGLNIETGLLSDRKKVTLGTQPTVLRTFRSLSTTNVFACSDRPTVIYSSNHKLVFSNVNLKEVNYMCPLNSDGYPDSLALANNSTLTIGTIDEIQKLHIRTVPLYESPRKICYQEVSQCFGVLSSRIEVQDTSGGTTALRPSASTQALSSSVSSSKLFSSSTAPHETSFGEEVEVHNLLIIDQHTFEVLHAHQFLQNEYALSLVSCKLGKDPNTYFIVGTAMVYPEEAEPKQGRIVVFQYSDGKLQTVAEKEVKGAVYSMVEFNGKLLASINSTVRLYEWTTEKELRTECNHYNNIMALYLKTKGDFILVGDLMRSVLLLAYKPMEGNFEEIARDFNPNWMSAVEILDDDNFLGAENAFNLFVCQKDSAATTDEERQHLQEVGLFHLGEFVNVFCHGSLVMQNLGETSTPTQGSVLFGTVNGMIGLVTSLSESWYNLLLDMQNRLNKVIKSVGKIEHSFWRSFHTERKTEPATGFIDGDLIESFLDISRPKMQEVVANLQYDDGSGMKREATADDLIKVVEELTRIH
Outline: (§2)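 Quantification by ImageJ densitometry of Western blot bands: DC50 is the fitted concentration halving band intensity relative to DMSO. Percent remaining uses internal-control normalization, and degradation rate is its complement.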

IKZF2 = biological target: T2, IKZF2 (Homo sapiens, UniProt Q96SW2+Q9UKS7); test: Western blot degradation of IKZF2 (hPBMC); type: cell-based; conditions: Table D16
T2 construct: evaluate the effects of the compounds of the present disclosure on the expression of target proteins in cells; endogenous in cells; host or cells: hPBMC
T2 sequence (Q9UKS7 whole entry): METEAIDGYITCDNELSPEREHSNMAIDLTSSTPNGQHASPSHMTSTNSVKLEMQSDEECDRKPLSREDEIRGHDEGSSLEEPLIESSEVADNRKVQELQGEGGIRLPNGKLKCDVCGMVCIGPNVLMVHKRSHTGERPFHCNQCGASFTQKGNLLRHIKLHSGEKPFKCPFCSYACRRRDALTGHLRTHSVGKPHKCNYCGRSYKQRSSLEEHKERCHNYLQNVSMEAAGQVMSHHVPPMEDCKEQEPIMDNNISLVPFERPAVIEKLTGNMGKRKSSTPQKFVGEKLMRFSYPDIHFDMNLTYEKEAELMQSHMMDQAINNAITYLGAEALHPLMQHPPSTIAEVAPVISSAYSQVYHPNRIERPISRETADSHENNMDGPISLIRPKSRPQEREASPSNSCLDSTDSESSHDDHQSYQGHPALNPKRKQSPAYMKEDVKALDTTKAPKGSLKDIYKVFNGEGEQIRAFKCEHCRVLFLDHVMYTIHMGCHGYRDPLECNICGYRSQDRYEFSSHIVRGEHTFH
T2 sequence (Q96SW2 whole entry): as the sequence (Q96SW2 whole entry) above
T2 sequence (Q16531 whole entry partner): as the sequence (Q16531 whole entry partner) above
Outline: as §2

IKZF3 = biological target: T3, IKZF3 (Homo sapiens, UniProt Q96SW2+Q9UKT9); test: Western blot degradation of IKZF3 (hPBMC); type: cell-based; conditions: Table D16
T3 construct: evaluate the effects of the compounds of the present disclosure on the expression of target proteins in cells; endogenous in cells; host or cells: hPBMC
Outline: as §2

GSPT1 = biological target: T4, GSPT1 (Homo sapiens, UniProt P15170+Q96SW2); test: Western blot degradation of GSPT1 (hPBMC); type: cell-based; conditions: Table D16
T4 construct: evaluate the effects of the compounds of the present disclosure on the expression of target proteins in cells; endogenous in cells; host or cells: hPBMC
T4 sequence (P15170 whole entry): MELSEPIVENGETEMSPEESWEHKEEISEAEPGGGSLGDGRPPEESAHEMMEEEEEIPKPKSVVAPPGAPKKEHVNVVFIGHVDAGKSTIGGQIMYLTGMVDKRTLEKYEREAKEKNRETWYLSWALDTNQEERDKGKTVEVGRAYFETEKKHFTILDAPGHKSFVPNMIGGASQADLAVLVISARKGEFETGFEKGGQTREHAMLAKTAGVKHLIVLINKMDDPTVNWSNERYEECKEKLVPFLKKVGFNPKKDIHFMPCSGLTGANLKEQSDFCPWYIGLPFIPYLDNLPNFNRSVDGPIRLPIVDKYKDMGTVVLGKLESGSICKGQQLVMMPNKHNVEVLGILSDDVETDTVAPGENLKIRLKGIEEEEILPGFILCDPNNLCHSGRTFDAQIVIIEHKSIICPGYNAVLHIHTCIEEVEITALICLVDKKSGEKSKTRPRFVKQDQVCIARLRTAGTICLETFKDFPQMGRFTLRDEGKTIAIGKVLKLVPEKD
T4 sequence (Q96SW2 whole entry): as the sequence (Q96SW2 whole entry) above
T4 sequence (Q16531 whole entry partner): as the sequence (Q16531 whole entry partner) above
Outline: as §2

CK1a = biological target: T5, CK1a (Homo sapiens, UniProt P48729+Q96SW2); test: Western blot degradation of CK1a (hPBMC); type: cell-based; conditions: Table D16
T5 construct: evaluate the effects of the compounds of the present disclosure on the expression of target proteins in cells; endogenous in cells; host or cells: hPBMC
T5 sequence (P48729 whole entry): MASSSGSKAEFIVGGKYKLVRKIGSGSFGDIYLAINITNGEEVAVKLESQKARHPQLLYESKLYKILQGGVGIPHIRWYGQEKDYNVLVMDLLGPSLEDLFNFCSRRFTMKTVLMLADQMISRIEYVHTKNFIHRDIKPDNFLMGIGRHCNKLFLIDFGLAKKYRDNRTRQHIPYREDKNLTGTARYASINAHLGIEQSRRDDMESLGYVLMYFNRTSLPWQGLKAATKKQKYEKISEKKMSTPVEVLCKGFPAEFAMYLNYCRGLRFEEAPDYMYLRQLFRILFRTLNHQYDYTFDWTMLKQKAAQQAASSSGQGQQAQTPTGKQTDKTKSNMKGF
T5 sequence (Q96SW2 whole entry): as the sequence (Q96SW2 whole entry) above
T5 sequence (Q16531 whole entry partner): as the sequence (Q16531 whole entry partner) above
Outline: as §2

WEE1 = biological target: T6, WEE1 (Homo sapiens, UniProt P30291+Q96SW2); test: Western blot degradation of WEE1 (hPBMC); type: cell-based; conditions: Table D16
T6 construct: evaluate the effects of the compounds of the present disclosure on the expression of target proteins in cells; endogenous in cells; host or cells: hPBMC
T6 sequence (P30291 whole entry): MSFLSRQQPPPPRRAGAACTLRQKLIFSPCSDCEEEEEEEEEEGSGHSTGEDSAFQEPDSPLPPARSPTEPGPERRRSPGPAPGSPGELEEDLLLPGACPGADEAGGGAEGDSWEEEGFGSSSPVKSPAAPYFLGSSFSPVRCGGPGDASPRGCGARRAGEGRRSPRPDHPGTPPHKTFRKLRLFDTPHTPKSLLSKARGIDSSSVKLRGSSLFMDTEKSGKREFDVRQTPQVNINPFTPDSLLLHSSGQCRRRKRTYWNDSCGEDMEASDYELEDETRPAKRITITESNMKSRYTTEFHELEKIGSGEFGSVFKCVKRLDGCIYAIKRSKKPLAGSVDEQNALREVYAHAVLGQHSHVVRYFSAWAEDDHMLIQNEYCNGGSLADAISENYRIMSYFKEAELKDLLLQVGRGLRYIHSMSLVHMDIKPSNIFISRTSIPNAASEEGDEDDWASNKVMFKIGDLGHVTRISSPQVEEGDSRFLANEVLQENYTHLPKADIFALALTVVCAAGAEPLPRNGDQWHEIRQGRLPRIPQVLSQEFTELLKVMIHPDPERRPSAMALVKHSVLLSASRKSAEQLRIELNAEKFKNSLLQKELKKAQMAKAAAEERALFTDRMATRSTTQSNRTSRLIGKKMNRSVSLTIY
T6 sequence (Q96SW2 whole entry): as the sequence (Q96SW2 whole entry) above
T6 sequence (Q16531 whole entry partner): as the sequence (Q16531 whole entry partner) above
Outline: as §2

MM.1S = test: CCK-8 proliferation, MM.1S; type: cell-based; conditions: Homo sapiens, MM1.S; CCK-8; 72 hours; read-out: Inhibitory activity (IC50) on tumor cell proliferation, MM1S
Outline: as §1

MV-4-11 = test: CCK-8 proliferation, MV-4-11; type: cell-based, Human; conditions: Homo sapiens, MV4-11
Procedure: The tumor cells used herein were cultured in a cell culture medium listed in table A1 at 37°C in an incubator with 5% CO2. Prior to experimentation, all cell lines used were correctly identified by STR profiling, and tested negative for mycoplasma contamination using a mycoplasma detection kit through routine screenings. Table A1. Tumor cells and cell culture medium used in the present disclosure
IC50 values of the compounds of the present disclosure (including the compounds in Table 1, and compounds of examples) were measured using the Meilun Cell Counting Kit-8 kit from Dalian Meilun Biotech Co., Ltd. Assay details are as follows: tumor cells were seeded in a 96-well plate at a density listed in Table A2. After 24h, 100 µL of the inoculated cells were treated with 0.5µL of the compounds of the present disclosure (including the compounds in Tables 1 and 2, and compounds of examples) at 10 different successively decreasing concentrations (starting at the highest concentration of 10µM; 5-fold serial dilutions). After the cells were treated with the compounds of the present disclosure for a period of time, the cell viability detection reagent was added to the culture medium for cell viability assessment according to the instructions provided with the CCK-8 kit. […] The growth inhibition of the compounds of the present disclosure on cells was plotted by Prism Graphpad software, and the IC50 values of the compounds of the present disclosure were calculated therefrom. […] Seeding protocol and treatment time for tumor cells

[1] = CCK-8, 72 or 96 hours, read-out: Inhibitory activity (IC50) on tumor cell proliferation, MV-4-11
[2] = Table B10, compounds designed based on the IRAK4 inhibitors, MV-4-11 cells, read-out: Inhibitory activity (IC50, nM) on tumor cell proliferation, MV-4-11

Row | IC50 (MM.1S) [nM] | IC50 (MV-4-11; [1]) [nM] | SMILES | Degradation of substrate protein IKZF1 (substrate protein remaining %) (IKZF1) | Degradation of substrate protein IKZF2 (substrate protein remaining %) (IKZF2) | Degradation of substrate protein IKZF3 (substrate protein remaining %) (IKZF3) | Degradation of substrate protein GSPT1 (substrate protein remaining %) (GSPT1) | Degradation of substrate protein CKla (substrate protein remaining %) (CK1a) | Degradation of substrate protein WEE1 (substrate protein remaining %) (WEE1) | other results
1 | – | 100 to 500 | Cc1ccsc1C(=O)n1nc(Nc2ccc(S(=O)(=O)N3CCN(Cc4cccc(N5CCC(=O)NC5=O)c4)CC3)cc2)nc1N [GT-06859, 1-(3-((4-((4-((5-amino-1-(3-methylthiophene-2-carbonyl)-1H-1,2,4-triazol-3-yl)amino)phenyl)sulfonyl)piperazin-1-yl)methyl)phenyl)dihydropyrimidine-2,4(1H,3H)-dione] | – | – | – | – | – | – | –
2 | – | 100 to 500 | Cc1ccsc1C(=O)n1nc(Nc2ccc(S(=O)(=O)N3CCN(Cc4ccc(C5CCC(=O)NC5=O)cc4)CC3)cc2)nc1N (stereo not shown) [GT-06854, 3-(4-((4-((4-((5-amino-1-(3-methylthiophene-2-carbonyl)-1H-1,2,4-triazol-3-yl)amino)phenyl)sulfonyl)piperazin-1-yl)methyl)phenyl)piperidine-2,6-dione] | – | – | – | – | – | – | –
3 | – | 100 to 500 | Cc1ccsc1C(=O)n1nc(Nc2ccc(S(=O)(=O)N3CCN(Cc4ccc(N5CCC(=O)NC5=O)cc4F)CC3)cc2)nc1N [GT-06858, 1-(4-((4-((4-((5-amino-1-(3-methylthiophene-2-carbonyl)-1H-1,2,4-triazol-3-yl)amino)phenyl)sulfonyl)piperazin-1-yl)methyl)-3-fluorophenyl)dihydropyrimidine-2,4(1H,3H)-dione] | – | – | – | – | – | – | –
4 | – | 100 to 500 | Nc1nc(Nc2ccc(S(=O)(=O)N3CCN(Cc4ccc(N5CCC(=O)NC5=O)cn4)CC3)cc2)nn1C(=O)c1c(F)cccc1F [GT-06753, 1-(6-((4-((4-((5-amino-1-(2,6-difluorobenzoyl)-1H-1,2,4-triazol-3-yl)amino)phenyl)sulfonyl)piperazin-1-yl)methyl)pyridin-3-yl)dihydropyrimidine-2,4(1H,3H)-dione] | – | – | – | – | – | – | –
5 | – | 500 to 1000 | Cc1ccsc1C(=O)n1nc(Nc2ccc(S(=O)(=O)N3CCN(Cc4ccc(C5CCC(=O)NC5=O)c(F)c4)CC3)cc2)nc1N (stereo not shown) [GT-06855, 3-(4-((4-((4-((5-amino-1-(3-methylthiophene-2-carbonyl)-1H-1,2,4-triazol-3-yl)amino)phenyl)sulfonyl)piperazin-1-yl)methyl)-2-fluorophenyl)piperidine-2,6-dione] | – | – | – | – | – | – | –
6 | – | 500 to 1000 | Nc1nc(Nc2ccc(S(=O)(=O)N3CCN(Cc4cccc(N5CCC(=O)NC5=O)c4)CC3)cc2)nn1C(=O)c1c(F)cccc1F [GT-06752, 1-(3-((4-((4-((5-amino-1-(2,6-difluorobenzoyl)-1H-1,2,4-triazol-3-yl)amino)phenyl)sulfonyl)piperazin-1-yl)methyl)phenyl)dihydropyrimidine-2,4(1H,3H)-dione] | – | – | – | – | – | – | –

The next lines start with the compound.

Row | SMILES | IC50 (MM.1S) [nM] | IC50 (MV-4-11; [1]) [nM] | Degradation of substrate protein IKZF1 (substrate protein remaining %) (IKZF1) | Degradation of substrate protein IKZF2 (substrate protein remaining %) (IKZF2) | Degradation of substrate protein IKZF3 (substrate protein remaining %) (IKZF3) | Degradation of substrate protein GSPT1 (substrate protein remaining %) (GSPT1) | Degradation of substrate protein CKla (substrate protein remaining %) (CK1a) | Degradation of substrate protein WEE1 (substrate protein remaining %) (WEE1) | other results
7 | O=C1CCN(c2cncc(CCl)c2)C(=O)N1 [GT-07047, 1-(5-(Chloromethyl)pyridin-3-yl)dihydropyrimidine-2,4(1H,3H)-dione] | 1000 to 5000 | – | A (A is defined as 0% ≤ substrate protein remaining % ≤ 80%) | A (A is defined as 0% ≤ substrate protein remaining % ≤ 80%) | A (A is defined as 0% ≤ substrate protein remaining % ≤ 80%) | B (B is defined as substrate protein remaining % > 80%) | A (A is defined as 0% ≤ substrate protein remaining % ≤ 80%) | B (B is defined as substrate protein remaining % > 80%) | IC50 (MCF7): 1000 to 5000 nM
8 | O=C1CCC(c2cc(CO)ccn2)C(=O)N1 (stereo not shown) [GT-07050, 3-(4-(Hydroxymethyl)pyridin-2-yl)piperidine-2,6-dione] | 1000 to 5000 | – | A (A is defined as 0% ≤ substrate protein remaining % ≤ 80%) | B (B is defined as substrate protein remaining % > 80%) | A (A is defined as 0% ≤ substrate protein remaining % ≤ 80%) | A (A is defined as 0% ≤ substrate protein remaining % ≤ 80%) | A (A is defined as 0% ≤ substrate protein remaining % ≤ 80%) | B (B is defined as substrate protein remaining % > 80%) | IC50 (MCF7): 1000 to 5000 nM
9 | Cc1cc(S(=O)(=O)N2CCN(Cc3ccc(N4CCC(=O)NC4=O)cn3)CC2)ccc1Nc1ncc(Br)c(Nc2cccc(F)c2C(N)=O)n1 [GT-06833, 2-((5-bromo-2-((4-((4-((5-(2,4-dioxotetrahydropyrimidin-1(2H)-yl)pyridin-2-yl)methyl)piperazin-1-yl)sulfonyl)-2-methylphenyl)amino)pyrimidin-4-yl)amino)-6-fluorobenzamide] | – | 50 to 100 | – | – | – | – | – | – | –
10 | O=Cc1ccnc(NC2CCC(=O)NC2=O)c1 (stereo not shown) [GT-07553, 2-((2,6-Dioxopiperidin-3-yl)amino)isonicotinaldehyde] | 1000 to 5000 | – | A (A is defined as 0% ≤ substrate protein remaining % ≤ 80%) | A (A is defined as 0% ≤ substrate protein remaining % ≤ 80%) | B (B is defined as substrate protein remaining % > 80%) | B (B is defined as substrate protein remaining % > 80%) | B (B is defined as substrate protein remaining % > 80%) | A (A is defined as 0% ≤ substrate protein remaining % ≤ 80%) | –
11 | Cc1cc(-c2nc(C(=O)Nc3cc4oc(N5CCN(Cc6ccc(C7CCC(=O)NC7=O)c(F)c6)CC5)nc4nc3N3CC[C@@H](O)C3)co2)ccn1 (stereo partly drawn) [GT-03847, N-(2-(4-(4-(2,6-dioxopiperidin-3-yl)-3-fluorobenzyl)piperazin-1-yl)-5-((R)-3-hydroxypyrrolidin-1-yl)oxazolo[4,5-b]pyridin-6-yl)-2-(2-methylpyridin-4-yl)oxazole-4-carboxamide] | – | – | – | – | – | – | – | – | IC50 (MV-4-11; [2]): 50 to 100 nM
12 | NCc1cc(N2CCC(=O)NC2=O)ncc1F [GT-07369, 1-(4-(Aminomethyl)-5-fluoropyridin-2-yl)dihydropyrimidine-2,4(1H,3H)-dione] | 1000 to 5000 | – | B (B is defined as substrate protein remaining % > 80%) | B (B is defined as substrate protein remaining % > 80%) | B (B is defined as substrate protein remaining % > 80%) | A (A is defined as 0% ≤ substrate protein remaining % ≤ 80%) | A (A is defined as 0% ≤ substrate protein remaining % ≤ 80%) | B (B is defined as substrate protein remaining % > 80%) | –
13 | Cc1cc(-c2nc(C(=O)Nc3cc4oc(N5CCN(Cc6ccc(C7CCC(=O)NC7=O)cc6)CC5)nc4nc3N3CC[C@@H](O)C3)co2)ccn1 (stereo partly drawn) [GT-03846, N-(2-(4-(4-(2,6-dioxopiperidin-3-yl)benzyl)piperazin-1-yl)-5-((R)-3-hydroxypyrrolidin-1-yl)oxazolo[4,5-b]pyridin-6-yl)-2-(2-methylpyridin-4-yl)oxazole-4-carboxamide] | – | – | – | – | – | – | – | – | IC50 (MV-4-11; [2]): 50 to 100 nM
14 | NCc1ccnc(N2CCC(=O)NC2=O)c1 [GT-07198, 1-(4-(Aminomethyl)pyridin-2-yl)dihydropyrimidine-2,4(1H,3H)-dione] | 1000 to 5000 | – | B (B is defined as substrate protein remaining % > 80%) | B (B is defined as substrate protein remaining % > 80%) | A (A is defined as 0% ≤ substrate protein remaining % ≤ 80%) | B (B is defined as substrate protein remaining % > 80%) | B (B is defined as substrate protein remaining % > 80%) | B (B is defined as substrate protein remaining % > 80%) | –
